# Measured values as given in patent US20040176474A1 (priority 2003, published 2004).
# How the values were obtained:
# [1] = UN Test Series 3 overall conclusion; assay type: physicochemical; settings: sensitivity for transportation
# Description: UN Test Series 3: Drop Impact
# Conclusion of UN Tests Series 3 Results:
# [2] = Adiabatic compression test; assay type: physicochemical
# Description: Adiabatic Compression Test
# This test determines the initiation sensitivity of the material to sudden gas compression, such as liquid inertia compressing entrained gas bubbles during transportation or hydrostatic pressure heads which form when pumping liquid or opening and closing valves. The test is performed with a plunger to rapidly compress gas from a drop height of at least 100 cm within a cylindrical chamber containing the sample. Energy is delivered to the plunger with a drop weight. A failed test is one in which any smoke, discoloration, char, spark or audible report result from the test. Neat propargyl bromide and the single solvent formulation pass the test at drop height of 150 cm in nitrogen and fail the test in air at drop heights of 100 cm and 150 cm.
smiles,measurement,setting,value
"C#CCBr [neat propargyl bromide, 3-bromopropyne]",UN Test Series 3 conclusion,[1],too sensitive to mechanical impact to allow transportation
same,Adiabatic compression test result (pass/fail),[2]; drop height of 150 cm in nitrogen,pass
same,Adiabatic compression test result (pass/fail),[2]; in air at drop heights of 100 cm and 150 cm,fail
